Holding throughout (assay): growth of human tumour cells (NCI), 48 h
Test [1] deals with MDA-N.
Test [2] concerns SK-OV-3.
The test system of test [3] is HCT-15.
The subject of test [4] is SW-620.
Test [5] has as its system HT-29.
Test [6] relates to EKVX.
Test [7] has as its system HCT-116.
In test [8] the test system is OVCAR-4.
Test [9] concerns ACHN.
Test [10] relates to TK-10.
The subject of test [11] is MCF7.
Test [12] deals with RXF 393.
The test system of test [13] is UACC-62.
In test [14] the test system is SF-539.
Test [15] has as its system DU-145.
Test [16] deals with CCRF-CEM.
Test [17] concerns COLO 205.
Test [18] relates to CAKI-1.

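In this assay, cells in 96-well plates receive the compound at five concentrations for 48 hours. Endpoints are linearly interpolated between the surrounding concentrations. At the GI50, growth is halved.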 Calls of active or inactive are those of the source. Cut-off read from the data, not from the text of the source: active = GI50 up to about 1.1 µM and inactive = higher. Where a SMILES comes first, the peptide text is derived from it. [ ]: non-standard residue; d: D form. Phe(4-NO2) = N[CH](Cc1ccc([N+](=O)[O-])cc1)C(=O)O

With `N#CCCN(CCC#N)c1ccc(/C=C2\N=C(c3ccccc3)N(c3ccc(Cl)cc3)C2=O)cc1`, the GI50 in test [1] was > 100 µM (inactive); in [2] it was > 100 µM (inactive); in test [3], > 100 µM; in [4], > 100 µM (inactive); in [5], > 100 µM (inactive); in test [6] it was > 100 µM (inactive). In addition, the GI50 in test [7], in [8], in test [9], in test [10], in test [11] and in test [12] was > 100 µM (inactive) each time. Further, the GI50 is 39.7 µM (inactive) in test [13]; > 100 µM (inactive) in test [14]; > 100 µM (inactive) in test [15]; > 100 µM (inactive) in [16]; > 100 µM (inactive) in test [17].

With `COc1ccc(/N=N/C(=O)NC(CC(C)C)C(=O)NC(Cc2ccccc2)C(=O)O)cc1` (stereo not drawn), the GI50 in [1] is 0.7 µM (active); in [3], 0.378 µM; in test [4], 7.73 µM (inactive); in test [5] it was > 100 µM (inactive); in test [6], 40.3 µM (inactive); in [7], 32.4 µM (inactive). Besides, the GI50 in test [18] is > 100 µM (inactive); in [8], 57.5 µM (inactive); in test [9] it was 0.347 µM (active); in test [10], > 100 µM (inactive); in test [11], 18.3 µM (inactive); in test [12] it was > 100 µM (inactive). Besides, the GI50 is 0.711 µM (active) in [13]; 0.31 µM (active) in test [14]; 0.634 µM (active) in [15]; 0.929 µM (active) in test [16]; 1.71 µM (inactive) in [17].

For `CCN1CC2=C(NC(=S)NC2c2ccc(Cl)cc2)/C(=C/c2ccc(Cl)cc2)C1` (stereo not drawn), the GI50 in [1] was > 100 µM (inactive); in [2], > 100 µM (inactive); in [3] it was 54.7 µM; in test [4], 67.1 µM (inactive); in test [5] it was > 100 µM (inactive); in [6], > 100 µM (inactive). The GI50 in [7] was 62.5 µM (inactive); in [18] it was 35.7 µM (inactive); in test [8] it was > 100 µM (inactive); in [9], 55.7 µM (inactive); in test [10], > 100 µM (inactive); in test [11], > 100 µM (inactive). The GI50 in test [12] was > 100 µM (inactive); in test [13] it was 29.3 µM (inactive); in test [15] it was > 100 µM (inactive); in test [16], 14.5 µM (inactive); in test [17], > 100 µM (inactive).

On to `COc1c(C(=O)/C(=N/Nc2ccc(C(=O)O)cc2)C(C)=O)c(O)cc2occc12`, for which the GI50 in [1] was 35.7 µM (inactive); in test [2] it was > 100 µM (inactive); in [3], 93.8 µM; in test [4] it was > 100 µM (inactive); in test [5], > 100 µM (inactive); in test [6] it was > 100 µM (inactive). The GI50 in [7] is > 100 µM (inactive); in [18], > 100 µM (inactive); in [9] it was > 100 µM (inactive); in test [10], 15.6 µM (inactive); in test [11], > 100 µM (inactive); in [12], 51.2 µM (inactive). In addition, the GI50 in test [13], in test [14], in test [15], in test [16] and in test [17] was > 100 µM (inactive) throughout.

Regarding `CC[C@@H]1CSC(/C=C/C2OC3OC(C)(C)OC3C3OC(C)(C)OC23)=N1` (stereo partly drawn), the GI50 in test [1] is 4.5 µM (inactive); in test [2], 35.8 µM (inactive); in test [3], 3.75 µM; in test [4], 3.22 µM (inactive); in [5] it was 3.94 µM (inactive); in [6], 11.8 µM (inactive). The GI50 in test [7] is 3.5 µM (inactive); in test [18] it was 11.1 µM (inactive); in test [8], 4.39 µM (inactive); in test [9] it was 9.44 µM (inactive); in [10] it was 3.78 µM (inactive); in test [11] it was 4.58 µM (inactive). Further, the GI50 in test [12] was 3.4 µM (inactive); in [13], 13.9 µM (inactive); in test [14] it was 4.84 µM (inactive); in test [15], 2.27 µM (inactive); in test [17] it was 5.32 µM (inactive).

For `Cc1cc(=O)nc(Sc2ccc([N+](=O)[O-])cc2[N+](=O)[O-])[nH]1`, the GI50 in test [1] is 16.7 µM (inactive); in test [2], 71.8 µM (inactive); in test [3] it was 14.2 µM; in test [4] it was 3.72 µM (inactive); in test [5], 3.55 µM (inactive); in [6] it was 32.7 µM (inactive). The GI50 in test [7] was 10.2 µM (inactive); in test [18], 15.1 µM (inactive); in [8], > 39.4 µM (inactive); in test [9], 19.8 µM (inactive); in test [10], 15.8 µM (inactive); in test [11], 14.4 µM (inactive). Also, the GI50 in test [12] is 12.9 µM (inactive); in [13], 17.3 µM (inactive); in test [15], 17.2 µM (inactive); in [16], 0.822 µM (active); in test [17] it was 4.65 µM (inactive).

On to `COc1ccc(/N=N/C(=O)NC(Cc2ccccc2)C(=O)O)cc1` (stereo not drawn), for which the GI50 in [1] was > 100 µM (inactive); in [3], > 100 µM; in test [4] it was > 100 µM (inactive); in test [5] it was > 100 µM (inactive); in test [6], > 100 µM (inactive); in test [7], > 100 µM (inactive). Moreover, the GI50 in test [18], in test [8], in [9], in test [10], in [11] and in test [12] was > 100 µM (inactive) each time. For the same compound, the GI50 in [13] was 87.9 µM (inactive); in [14], > 100 µM (inactive); in [15], > 100 µM (inactive); in [16] it was > 100 µM (inactive); in test [17] it was > 100 µM (inactive).

Take `CC(c1ccccc1)n1c2ccccc2c2c(N)ncnc21` (stereo not drawn): the GI50 in [1] was 22.6 µM (inactive); in [2], 14.2 µM (inactive); in test [3], 23.4 µM; in test [4], 22.6 µM (inactive); in test [5], 17.3 µM (inactive); in test [6], 10.8 µM (inactive). Besides, the GI50 in [7] was 21.5 µM (inactive); in [18], 16.1 µM (inactive); in test [8], 13.6 µM (inactive); in test [9] it was 11.7 µM (inactive); in [10], 17.1 µM (inactive); in [11], 20.7 µM (inactive). Besides, the GI50 in test [12] is 18.3 µM (inactive); in test [14], 17.1 µM (inactive); in test [15], 18.6 µM (inactive); in test [16] it was 27.8 µM (inactive).

With `O=C(COc1ccc(OCC(=O)N/N=C/c2ccc(-c3ccc(Cl)cc3Cl)o2)c(Cl)c1)N/N=C/c1ccc(-c2ccc(Cl)cc2Cl)o1`, the GI50 in test [1] was 31.6 µM (inactive); in test [3], > 100 µM; in [4], > 100 µM (inactive); in [5], > 100 µM (inactive); in test [6] it was 0.142 µM (active); in test [7], > 100 µM (inactive). The GI50 is > 100 µM (inactive) in test [18]; > 100 µM (inactive) in [8]; 70.1 µM (inactive) in [9]; > 100 µM (inactive) in test [10]; 41.8 µM (inactive) in test [11]; 33.6 µM (inactive) in test [12]. Moreover, the GI50 is 27.9 µM (inactive) in test [13], > 100 µM (inactive) in test [15], 14.8 µM (inactive) in test [16] and 0.942 µM (active) in test [17].

On to `CN1C(=O)C(CCO)(C(C)(C)C)c2ccccc21` (stereo not drawn), for which the GI50 in [1] was > 100 µM (inactive); in test [2], > 100 µM (inactive); in test [3], > 100 µM; in [4], > 100 µM (inactive); in [6], > 100 µM (inactive); in [7], > 100 µM (inactive). Further, the GI50 in test [18], in [8], in test [9], in test [11], in test [12] and in test [13] was > 100 µM (inactive) each time. Moreover, the GI50 in test [15], in [16] and in [17] was > 100 µM (inactive) each time.

Turning to `COC(=O)CCC(NC(=O)C(CCC(=O)OC)NC(=O)C(CCC(=O)OC)NC(=O)C(CCC(=O)OC)NC(=O)C(CCC(=O)OC)NC(=O)C(Cc1ccc([N+](=O)[O-])cc1)NC(=O)C(CCC(=O)OC)NC(=O)C(CCC(=O)OC)NC(=O)C(CCC(=O)OC)NC(=O)C(CCC(=O)OC)NC(=O)C(CCC(=O)OC)NC(C)=O)C(N)=O` (stereo not drawn) (Ac-E(OMe)E(OMe)E(OMe)E(OMe)E(OMe)[Phe(4-NO2)]E(OMe)E(OMe)E(OMe)E(OMe)E(OMe)-NH2; configuration not given here), the GI50 is > 100 µM (inactive) in [1]; 99.3 µM (inactive) in test [2]; > 10 µM in test [3]; > 100 µM (inactive) in test [4]; > 100 µM (inactive) in [5]; > 100 µM (inactive) in test [6]. In addition, the GI50 in [7], in test [18], in [8], in test [9], in test [10] and in [11] was > 100 µM (inactive) in each case. For the same compound, the GI50 in test [12] was > 100 µM (inactive); in test [13], > 10 µM (inactive); in test [15], > 100 µM (inactive); in test [16], > 100 µM (inactive); in test [17] it was > 100 µM (inactive).

The record behind these values is ChEMBL document CHEMBL1201862, “PubChem BioAssay data set” (2004).
